Source: patent publication US9669003B2, “Use of flavone and flavanone derivatives in preparation of sedative and hypnotic drugs” (priority 2012, dated 2017)
Marks after values point to notes of the source that are not given here.

Assays:
Type in all cases: in vivo
Kunming mice [1] = assay: Influence on autonomic activity of normal mice (ZIL-2 mice autonomic activity meter, counts within 10 min); conditions: intragastric, x ± s, n = 10; for Times of activities in 1 h after drug administration/10 min: 1 h after administration; for Times of activities in 2 h after drug administration/10 min: 2 h after administration; for Times of activities in 24 h after drug administration/10 min: 24 h after administration
In short: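 Kunming mice (10 per group, half each sex) were dosed at 25, 50 or 100 mg/kg in 0.5% CMC-Na. Spontaneous activity counts over 10 min were recorded at 1 h, 2 h and 24 h post-dose. Groups were compared by ANOVA with Dunnett's test after Levene's check.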

Kunming mice [2] = assay: Influence on hypnosis effect with pentobarbital sodium doses below the threshold (25 mg/kg i.p.); conditions: pentobarbital sodium 25 mg/kg i.p. 60 min later, sleep observed in 30 min, n = 10
In short: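 Kunming mice (10 per group, half female) given single oral doses of 25, 50 or 100 mg/kg in 0.5% CMC-Na; 60 min later pentobarbital sodium 25 mg/kg i.p. Sleep (righting reflex lost >1 min) scored within 30 min as percentage asleep, χ2 test.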

Kunming mice [3] = assay: Influence on hypnosis effect with pentobarbital sodium doses at the threshold (50 mg/kg i.p.); conditions: pentobarbital sodium 50 mg/kg i.p. 60 min later, x ± s, n = 10
In short: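 Kunming mice (10/group, half each sex) received compound in 0.5% CMC-Na intragastrically at 25, 50 or 100 mg/kg; 60 min later given 0.3% sodium pentobarbital 50 mg/kg i.p. Sleep latency and duration recorded by loss of righting reflex over 1 min; ANOVA and χ2 for sleep incidence.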

[4] = test drug 25 mg/kg intragastric single dose
[5] = test drug 50 mg/kg intragastric single dose
[6] = test drug 100 mg/kg intragastric single dose
[7] = 25 mg/kg intragastric single dose
[8] = 50 mg/kg intragastric single dose
[9] = 100 mg/kg intragastric single dose

Row | Compound | Times of activities in 1 h after drug administration/10 min (Kunming mice [1]; 25 mg/kg) | Times of activities in 2 h after drug administration/10 min (Kunming mice [1]; 25 mg/kg) | Times of activities in 24 h after drug administration/10 min (Kunming mice [1]; 25 mg/kg) | Times of activities in 1 h after drug administration/10 min (Kunming mice [1]; 50 mg/kg) | Times of activities in 2 h after drug administration/10 min (Kunming mice [1]; 50 mg/kg) | Times of activities in 24 h after drug administration/10 min (Kunming mice [1]; 50 mg/kg) | Times of activities in 1 h after drug administration/10 min (Kunming mice [1]; 100 mg/kg) | Times of activities in 2 h after drug administration/10 min (Kunming mice [1]; 100 mg/kg) | Times of activities in 24 h after drug administration/10 min (Kunming mice [1]; 100 mg/kg) | Number of sleeping animals (Kunming mice [2]; [4]) | rate of sleeping (%) (Kunming mice [2]; [4]) | Number of sleeping animals (Kunming mice [2]; [5]) | rate of sleeping (%) (Kunming mice [2]; [5]) | Number of sleeping animals (Kunming mice [2]; [6]) | rate of sleeping (%) (Kunming mice [2]; [6]) | duration of sleep (Kunming mice [3]; [7]) | time to sleep (Kunming mice [3]; [7]) | duration of sleep (Kunming mice [3]; [8]) | time to sleep (Kunming mice [3]; [8]) | duration of sleep (Kunming mice [3]; [9]) | also measured
1 | CC=Cc1cc(Cc2ccccc2)c2c(=O)cc(-c3cc(C#N)c([N+](=O)[O-])c(Cc4ccccc4)c3)oc2c1 [Example 25] | 286.3 ± 48.9 /10 min | 279.9 ± 41.7 /10 min | 295.2 ± 82.3 /10 min | 185.3 ± 51.1 /10 min | 190.2 ± 56.9 /10 min | 296.3 ± 91.1 /10 min | 135.6 ± 39.4 /10 min | 136.8 ± 47.9 /10 min | 281.6 ± 93.7 /10 min | 4 | 40* % | 7 | 70** % | 7 | 70** % | 41.02 ± 18.97 min | 4.41 ± 1.67 min | 62.87 ± 28.45 min | 3.84 ± 1.31 min | 70.23 ± 23.65 min | time to sleep (Kunming mice [3]; [9]): 3.05 ± 1.20 min
2 | COc1cc(-c2cc(=O)c3c(OC)c(OC)c(OC)cc3o2)cc(OC)c1OC [Example 13, 5,6,7,3′,4′,5′-hexamethoxyl-flavone] | 293.2 ± 47.1 /10 min | 278.5 ± 42.8 /10 min | 302.8 ± 67.2 /10 min | 280.7 ± 61.3 /10 min | 278.6 ± 47.5 /10 min | 309.2 ± 81.3 /10 min | 247.2 ± 35.6 /10 min | 225.3 ± 44.2 /10 min | 291.5 ± 69.5 /10 min | 4 | 40* % | 6 | 60** % | 7 | 70** % | 39.25 ± 17.25 min | 4.26 ± 1.23 min | 57.33 ± 29.41 min | 3.93 ± 1.15 min | 59.23 ± 25.36 min | time to sleep (Kunming mice [3]; [9]): 3.83 ± 1.21 min
3 | CCCc1cc(-c2cc(=O)c3c(I)cc(CCS(=O)(=O)O)cc3o2)cc(C(N)=O)c1C(=O)O [Example 23] | 287.2 ± 45.4 /10 min | 263.2 ± 45.2 /10 min | 307.2 ± 82.1 /10 min | 229.9 ± 40.6 /10 min | 244.7 ± 47.6 /10 min | 300.7 ± 71.4 /10 min | 135.5 ± 35.7 /10 min | 181.0 ± 38.2 /10 min | 292.8 ± 90.5 /10 min | 3 | 30% | 4 | 40* % | 7 | 70** % | 22.77 ± 25.89 min | 5.35 ± 2.33 min | 28.59 ± 26.98 min | 5.17 ± 2.26 min | 64.89 ± 45.78 min | time to sleep (Kunming mice [3]; [9]): 3.14 ± 1.21 min
4 | COc1cc(OC)c2c(=O)cc(-c3ccc(OC)c(O)c3)oc2c1 [Example 4, 3′-hydroxyl-5,7,4′-trimethoxyl-flavone] | 258.2 ± 44.2 /10 min | 250.3 ± 53.9 /10 min | 309.1 ± 76.1 /10 min | 219.3 ± 42.7 /10 min | 223.5 ± 41.3 /10 min | 318.4 ± 96.3 /10 min | 124.2 ± 49.1 /10 min | 127.2 ± 41.9 /10 min | 303.2 ± 90.1 /10 min | 6 | 60** % | 7 | 70** % | 8 | 80*** % | 63.65 ± 19.54 min | 3.75 ± 1.81 min | 69.91 ± 19.82 min | 3.41 ± 1.69 min | 81.66 ± 30.31 min | time to sleep (Kunming mice [3]; [9]): 2.51 ± 1.61 min
5 | C#Cc1ccc(-c2cc(=O)c3cc(F)c(C(=O)O)c(O)c3o2)cc1CCCCCCCCCCCCCCCCCCCC [Example 33] | 304.9 ± 39.2 /10 min | 298.2 ± 35.6 /10 min | 273.2 ± 80.8 /10 min | 266.4 ± 51.6 /10 min | 247.1 ± 58.3 /10 min | 284.7 ± 78.7 /10 min | 179.0 ± 49.1 /10 min | 165.8 ± 52.3 /10 min | 318.4 ± 80.5 /10 min | 5 | 50** % | 6 | 60** % | 7 | 70*** % | 30.43 ± 22.06 min | 4.81 ± 2.37 min | 36.53 ± 13.21 min | 4.62 ± 1.75 min | 51.56 ± 20.75 min | time to sleep (Kunming mice [3]; [9]): 3.82 ± 1.12 min
6 | COc1ccc(C2CC(=O)c3c(cc(OC)c(OC)c3OC)O2)cc1 (stereo not drawn) [Example 65, 5,6,7,4′-tetra methoxyl-flavanone] | 280.5 ± 47.4 /10 min | 279.4 ± 43.5 /10 min | 291.2 ± 83.6 /10 min | 174.3 ± 49.2 /10 min | 185.5 ± 56.6 /10 min | 289.0 ± 89.4 /10 min | 127.5 ± 36.5 /10 min | 132.6 ± 44.6 /10 min | 280.7 ± 92.3 /10 min | 4 | 40* % | 6 | 60** % | 7 | 70** % | 31.48 ± 22.67 min | 5.65 ± 1.83 min | 39.63 ± 20.19 min | 3.93 ± 1.39 min | 57.62 ± 24.57 min | time to sleep (Kunming mice [3]; [9]): 3.92 ± 1.40 min
